Test results as given in the NIST ThermoML archive (doi:10.1016/j.jct.2013.02.001).
± gives the expanded uncertainty stated by the source.

Settings: Quantum Design PPMS relaxation calorimeter; for molar entropy: 101.33 kPa

Work on `O=P([O-])([O-])OP(=O)([O-])[O-].[Fe+2].[Fe+2]` [iron(II) pyrophosphate] yielded a molar entropy (1 K, Crystal 2) of 0.08421 ± 0.013 J/K/mol, a molar entropy (2 K, Crystal 2) of 0.1749 ± 0.027 J/K/mol and a molar entropy (3 K, Crystal 2) of 0.2781 ± 0.043 J/K/mol. The molar entropy (4 K, Crystal 2) was 0.4026 ± 0.062 J/K/mol, the molar entropy (5 K, Crystal 2) was 0.5598 ± 0.086 J/K/mol and the molar entropy (6 K, Crystal 2) was 0.7639 ± 0.12 J/K/mol. For the same compound, the molar entropy (7 K, Crystal 2) was 1.033 ± 0.16 J/K/mol, the molar entropy (8 K, Crystal 2) was 1.379 ± 0.21 J/K/mol and the molar entropy (9 K, Crystal 2) was 1.814 ± 0.28 J/K/mol. The molar entropy (10 K, Crystal 2) was 2.349 ± 0.085 J/K/mol, the molar entropy (11 K, Crystal 2) was 2.988 ± 0.11 J/K/mol and the molar entropy (12 K, Crystal 2) was 3.726 ± 0.14 J/K/mol. It also gave a molar entropy (13 K, Crystal 2) of 4.55 ± 0.16 J/K/mol, a molar entropy (14 K, Crystal 2) of 5.45 ± 0.2 J/K/mol and a molar entropy (15 K, Crystal 2) of 6.422 ± 0.23 J/K/mol. For the same compound, the molar entropy (16 K, Crystal 2) was 7.473 ± 0.27 J/K/mol, the molar entropy (17 K, Crystal 2) was 8.609 ± 0.31 J/K/mol and the molar entropy (18 K, Crystal 2) was 9.826 ± 0.35 J/K/mol. For the same compound, the molar entropy (19 K, Crystal 1) was 11.08 ± 0.4 J/K/mol, the molar entropy (20 K, Crystal 1) was 12.28 ± 0.44 J/K/mol and the molar entropy (25 K, Crystal 1) was 16.82 ± 0.61 J/K/mol. It also gave a molar entropy (30 K, Crystal 1) of 20.58 ± 0.74 J/K/mol, a molar entropy (35 K, Crystal 1) of 24 ± 0.86 J/K/mol and a molar entropy (40 K, Crystal 1) of 27.36 ± 0.98 J/K/mol. The molar entropy (45 K, Crystal 1) was 30.72 ± 1.1 J/K/mol, the molar entropy (50 K, Crystal 1) was 34.14 ± 1.2 J/K/mol and the molar entropy (55 K, Crystal 1) was 37.63 ± 1.4 J/K/mol. For the same compound, the molar entropy (60 K, Crystal 1) was 41.21 ± 1.5 J/K/mol, the molar entropy (65 K, Crystal 1) was 44.87 ± 1.6 J/K/mol and the molar entropy (70 K, Crystal 1) was 48.62 ± 1.6 J/K/mol. It also gave a molar entropy (75 K, Crystal 1) of 52.44 ± 1.7 J/K/mol, a molar entropy (80 K, Crystal 1) of 56.32 ± 1.9 J/K/mol and a molar entropy (85 K, Crystal 1) of 60.25 ± 2 J/K/mol. For the same compound, the molar entropy (90 K, Crystal 1) was 64.23 ± 2.1 J/K/mol, the molar entropy (95 K, Crystal 1) was 68.25 ± 2.3 J/K/mol and the molar entropy (100 K, Crystal 1) was 72.3 ± 2.4 J/K/mol. For the same compound, the molar entropy (110 K, Crystal 1) was 80.43 ± 2.7 J/K/mol, the molar entropy (120 K, Crystal 1) was 88.54 ± 2.9 J/K/mol and the molar entropy (130 K, Crystal 1) was 96.61 ± 3.2 J/K/mol. The molar entropy (140 K, Crystal 1) was 104.61 ± 3.5 J/K/mol, the molar entropy (150 K, Crystal 1) was 112.55 ± 3.7 J/K/mol and the molar entropy (160 K, Crystal 1) was 120.42 ± 4 J/K/mol. It also gave a molar entropy (170 K, Crystal 1) of 128.21 ± 4.2 J/K/mol, a molar entropy (180 K, Crystal 1) of 135.93 ± 4.5 J/K/mol and a molar entropy (190 K, Crystal 1) of 143.57 ± 4.7 J/K/mol. For the same compound, the molar entropy (200 K, Crystal 1) was 151.13 ± 5 J/K/mol, the molar entropy (210 K, Crystal 1) was 158.6 ± 5.2 J/K/mol and the molar entropy (220 K, Crystal 1) was 165.99 ± 5.5 J/K/mol. It also gave a molar entropy (230 K, Crystal 1) of 173.3 ± 5.7 J/K/mol, a molar entropy (240 K, Crystal 1) of 180.51 ± 6 J/K/mol and a molar entropy (250 K, Crystal 1) of 187.62 ± 6.2 J/K/mol. The molar entropy (260 K, Crystal 1) was 194.64 ± 6.4 J/K/mol, the molar entropy (270 K, Crystal 1) was 201.56 ± 6.7 J/K/mol and the molar entropy (273.15 K, Crystal 1) was 203.72 ± 6.7 J/K/mol. It also gave a molar entropy (280 K, Crystal 1) of 208.38 ± 6.9 J/K/mol, a molar entropy (290 K, Crystal 1) of 215.1 ± 7.1 J/K/mol and a molar entropy (298.15 K, Crystal 1) of 220.5 ± 7.3 J/K/mol. It also gave a molar entropy (300 K, Crystal 1) of 221.72 ± 7.3 J/K/mol and a Triple point temperature (Crystal 2) of 18.96 ± 0.2 K.
